PubChem BioAssay (NCI)
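Values below derive from 48-hour exposures of cells grown in 96-well plates, with endpoints linearly interpolated between the two concentrations bracketing the appropriate inhibition level. The concentration for 50% growth inhibition is given as GI50. TGI: concentration producing complete growth inhibition.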

Legend:
Test in all cases: growth of human tumour cells (NCI), 48 h
786-0 renal = tested on: 786-0 renal
A498 renal = tested on: A498 renal
A549 NSCLC = tested on: A549 NSCLC
ACHN renal = tested on: ACHN renal
BT-549 breast = tested on: BT-549 breast
CAKI-1 renal = tested on: CAKI-1 renal
CCRF-CEM leukemia = tested on: CCRF-CEM leukemia
COLO 205 colon = tested on: COLO 205 colon
DU-145 prostate = tested on: DU-145 prostate
EKVX NSCLC = tested on: EKVX NSCLC
HCC-2998 colon = tested on: HCC-2998 colon
HCT-116 colon = tested on: HCT-116 colon
HCT-15 colon = tested on: HCT-15 colon
HL-60(TB) leukemia = tested on: HL-60(TB) leukemia
HOP-62 NSCLC = tested on: HOP-62 NSCLC
HOP-92 NSCLC = tested on: HOP-92 NSCLC
HS 578T breast = tested on: HS 578T breast
HT29 colon = tested on: HT29 colon
IGROV1 ovarian = tested on: IGROV1 ovarian
K-562 leukemia = tested on: K-562 leukemia
KM12 colon = tested on: KM12 colon
LOX IMVI melanoma = tested on: LOX IMVI melanoma
M14 melanoma = tested on: M14 melanoma
MALME-3M melanoma = tested on: MALME-3M melanoma
MCF7 breast = tested on: MCF7 breast
MDA-MB-231 breast = tested on: MDA-MB-231 breast
MDA-MB-435 = tested on: MDA-MB-435
MOLT-4 leukemia = tested on: MOLT-4 leukemia
NCI-H226 lung = tested on: NCI-H226 lung
NCI-H23 lung = tested on: NCI-H23 lung
NCI-H460 lung = tested on: NCI-H460 lung
NCI-H522 lung = tested on: NCI-H522 lung
NCI/ADR-RES ovarian = tested on: NCI/ADR-RES ovarian
OVCAR-3 ovarian = tested on: OVCAR-3 ovarian
OVCAR-4 ovarian = tested on: OVCAR-4 ovarian
OVCAR-5 ovarian = tested on: OVCAR-5 ovarian
OVCAR-8 ovarian = tested on: OVCAR-8 ovarian
RPMI-8226 leukemia = tested on: RPMI-8226 leukemia
RXF 393 renal = tested on: RXF 393 renal
SF-268 CNS = tested on: SF-268 CNS
SF-295 CNS = tested on: SF-295 CNS
SK-MEL-2 melanoma = tested on: SK-MEL-2 melanoma
SK-MEL-28 melanoma = tested on: SK-MEL-28 melanoma
SK-MEL-5 melanoma = tested on: SK-MEL-5 melanoma
SK-OV-3 ovarian = tested on: SK-OV-3 ovarian
SN12C renal = tested on: SN12C renal
SNB-19 CNS = tested on: SNB-19 CNS
SNB-75 CNS = tested on: SNB-75 CNS
SR leukemia = tested on: SR leukemia
SW-620 colon = tested on: SW-620 colon
T-47D breast = tested on: T-47D breast
TK-10 renal = tested on: TK-10 renal
U251 CNS = tested on: U251 CNS
UACC-257 melanoma = tested on: UACC-257 melanoma
UACC-62 melanoma = tested on: UACC-62 melanoma
UO-31 renal = tested on: UO-31 renal
PC-3 prostate = tested on: PC-3 prostate
SF-539 CNS = tested on: SF-539 CNS

## Clc1ccc2nnnn2n1
786-0 renal
  GI50: 3.73 µM
  TGI: > 100 µM
A498 renal
  GI50: 15.1 µM
  TGI: 54.9 µM
A549 NSCLC
  GI50: 13.9 µM
  TGI: > 100 µM
ACHN renal
  GI50: 5.27 µM
  TGI: 19.5 µM
BT-549 breast
  GI50: 2.87 µM
  TGI: 9.92 µM
CAKI-1 renal
  GI50: 10.1 µM
  TGI: 22.8 µM
CCRF-CEM leukemia
  GI50: 3.74 µM
  TGI: 29.8 µM
COLO 205 colon
  GI50: 2.03 µM
  TGI: 3.81 µM
DU-145 prostate
  GI50: 2.31 µM
  TGI: 6.41 µM
EKVX NSCLC
  GI50: 18 µM
  TGI: 62.3 µM
HCC-2998 colon
  GI50: 16.9 µM
  TGI: 40.6 µM
HCT-116 colon
  GI50: 2.06 µM
  TGI: 4.46 µM
HCT-15 colon
  GI50: 4.01 µM
  TGI: > 100 µM
HL-60(TB) leukemia
  GI50: 1.94 µM
  TGI: 5.14 µM
HOP-62 NSCLC
  GI50: 4.51 µM
  TGI: 33.1 µM
HOP-92 NSCLC
  GI50: 4.15 µM
  TGI: 27 µM
HS 578T breast
  GI50: 21.8 µM
  TGI: > 100 µM
HT29 colon
  GI50: 2.93 µM
  TGI: 8.03 µM
IGROV1 ovarian
  GI50: 4.05 µM
  TGI: 50.1 µM
K-562 leukemia
  GI50: 2.77 µM
  TGI: 17.4 µM
KM12 colon
  GI50: 2.08 µM
  TGI: 4.87 µM
LOX IMVI melanoma
  GI50: 3.64 µM
  TGI: > 100 µM
M14 melanoma
  GI50: 1.98 µM
  TGI: 6.26 µM
MALME-3M melanoma
  GI50: 12.1 µM
  TGI: 31.4 µM
MCF7 breast
  GI50: 3.11 µM
  TGI: 14.3 µM
MDA-MB-231 breast
  GI50: 2.64 µM
  TGI: 7.01 µM
MDA-MB-435
  GI50: 2.13 µM
  TGI: 5.39 µM
MOLT-4 leukemia
  GI50: 3.26 µM
  TGI: 44.5 µM
NCI-H226 lung
  GI50: 4.84 µM
  TGI: 35.9 µM
NCI-H23 lung
  GI50: 5.98 µM
  TGI: 35.4 µM
NCI-H460 lung
  GI50: 3.26 µM
  TGI: 12 µM
NCI-H522 lung
  GI50: 3.01 µM
  TGI: 11.2 µM
NCI/ADR-RES ovarian
  GI50: 5.61 µM
  TGI: > 100 µM
OVCAR-3 ovarian
  GI50: 2.6 µM
  TGI: 6.66 µM
OVCAR-4 ovarian
  GI50: 5.21 µM
  TGI: 17.7 µM
OVCAR-5 ovarian
  GI50: 4.7 µM
  TGI: 20.5 µM
OVCAR-8 ovarian
  GI50: 5.22 µM
  TGI: > 100 µM
RPMI-8226 leukemia
  GI50: 3.54 µM
  TGI: 28 µM
RXF 393 renal
  GI50: 2.75 µM
  TGI: 8.65 µM
SF-268 CNS
  GI50: 3.74 µM
  TGI: 37.2 µM
SF-295 CNS
  GI50: 4.05 µM
  TGI: > 100 µM
SK-MEL-2 melanoma
  GI50: 2.88 µM
  TGI: 20.7 µM
SK-MEL-28 melanoma
  GI50: 12.3 µM
  TGI: 63 µM
SK-MEL-5 melanoma
  GI50: 2.24 µM
  TGI: 6.19 µM
SK-OV-3 ovarian
  GI50: 10.5 µM
  TGI: 92.9 µM
SN12C renal
  GI50: 4.7 µM
  TGI: > 100 µM
SNB-19 CNS
  GI50: 31.8 µM
  TGI: > 100 µM
SNB-75 CNS
  GI50: 4.07 µM
  TGI: > 100 µM
SR leukemia
  GI50: 1.46 µM
  TGI: 8 µM
SW-620 colon
  GI50: 3.88 µM
  TGI: 22 µM
T-47D breast
  GI50: 6.25 µM
  TGI: 24 µM
TK-10 renal
  GI50: 3.5 µM
  TGI: 23.6 µM
U251 CNS
  GI50: 3.97 µM
  TGI: 22.7 µM
UACC-257 melanoma
  GI50: 16.1 µM
  TGI: 56.9 µM
UACC-62 melanoma
  GI50: 2.77 µM
  TGI: 27.5 µM
UO-31 renal
  GI50: 3.52 µM
  TGI: > 100 µM

## COc1cc(-n2cc(-c3ccc(Cl)cc3)nc2SCc2cccc(C#N)c2)cc(OC)c1OC
786-0 renal
  GI50: 25.1 µM
  TGI: 92.5 µM
A498 renal
  GI50: 33.3 µM
  TGI: > 100 µM
A549 NSCLC
  GI50: > 100 µM
  TGI: > 100 µM
ACHN renal
  GI50: 37.6 µM
  TGI: > 100 µM
CAKI-1 renal
  GI50: 38.5 µM
  TGI: > 100 µM
CCRF-CEM leukemia
  GI50: > 100 µM
  TGI: > 100 µM
COLO 205 colon
  GI50: > 100 µM
  TGI: > 100 µM
DU-145 prostate
  GI50: 48.1 µM
  TGI: > 100 µM
EKVX NSCLC
  GI50: 18.2 µM
  TGI: 56.9 µM
HCC-2998 colon
  GI50: > 100 µM
  TGI: > 100 µM
HCT-116 colon
  GI50: 37.3 µM
  TGI: > 100 µM
HCT-15 colon
  GI50: > 100 µM
  TGI: > 100 µM
HL-60(TB) leukemia
  GI50: > 100 µM
  TGI: > 100 µM
HOP-62 NSCLC
  GI50: 39.2 µM
  TGI: > 100 µM
HOP-92 NSCLC
  GI50: 18.8 µM
  TGI: 86.5 µM
HS 578T breast
  GI50: 34.2 µM
  TGI: > 100 µM
HT29 colon
  GI50: 54.1 µM
  TGI: > 100 µM
IGROV1 ovarian
  GI50: 54.9 µM
  TGI: > 100 µM
K-562 leukemia
  GI50: > 100 µM
  TGI: > 100 µM
KM12 colon
  GI50: > 100 µM
  TGI: > 100 µM
LOX IMVI melanoma
  GI50: > 100 µM
  TGI: > 100 µM
M14 melanoma
  GI50: > 100 µM
  TGI: > 100 µM
MALME-3M melanoma
  GI50: 18.9 µM
  TGI: 60.2 µM
MCF7 breast
  GI50: 51.3 µM
  TGI: > 100 µM
MDA-MB-231 breast
  GI50: 73.5 µM
  TGI: > 100 µM
MDA-MB-435
  GI50: 82.9 µM
  TGI: > 100 µM
MOLT-4 leukemia
  GI50: 37.5 µM
  TGI: > 100 µM
NCI-H226 lung
  GI50: 41.3 µM
  TGI: > 100 µM
NCI-H23 lung
  GI50: 37.5 µM
  TGI: > 100 µM
NCI-H460 lung
  GI50: 95.5 µM
  TGI: > 100 µM
NCI-H522 lung
  GI50: 47 µM
  TGI: > 100 µM
NCI/ADR-RES ovarian
  GI50: 94.7 µM
  TGI: > 100 µM
OVCAR-3 ovarian
  GI50: 50.3 µM
  TGI: > 100 µM
OVCAR-4 ovarian
  GI50: 20.9 µM
  TGI: 74.7 µM
OVCAR-5 ovarian
  GI50: > 100 µM
  TGI: > 100 µM
PC-3 prostate
  GI50: 30.4 µM
  TGI: > 100 µM
RPMI-8226 leukemia
  GI50: > 100 µM
  TGI: > 100 µM
SF-268 CNS
  GI50: 39.4 µM
  TGI: > 100 µM
SF-295 CNS
  GI50: 48.1 µM
  TGI: > 100 µM
SF-539 CNS
  GI50: 15.5 µM
  TGI: 48.1 µM
SK-MEL-28 melanoma
  GI50: 31.2 µM
  TGI: > 100 µM
SK-MEL-5 melanoma
  GI50: 34.8 µM
  TGI: > 100 µM
SK-OV-3 ovarian
  GI50: 71.5 µM
  TGI: > 100 µM
SN12C renal
  GI50: 46 µM
  TGI: > 100 µM
SNB-19 CNS
  GI50: 48 µM
  TGI: > 100 µM
SNB-75 CNS
  GI50: 0.433 µM
  TGI: 9.77 µM
SR leukemia
  GI50: > 100 µM
  TGI: > 100 µM
SW-620 colon
  GI50: 91.5 µM
  TGI: > 100 µM
T-47D breast
  GI50: 21.4 µM
  TGI: > 100 µM
TK-10 renal
  GI50: 30.5 µM
  TGI: > 100 µM
U251 CNS
  GI50: 44.1 µM
  TGI: > 100 µM
UACC-62 melanoma
  GI50: 21.9 µM
  TGI: > 100 µM
UO-31 renal
  GI50: 60.4 µM
  TGI: > 100 µM
